What was measured:
[1] = test system: SRC-1, SRC-2 or SRC-3 fused with the DNA binding domain of Gal4; assay: Gal4 luciferase reporter (pG5-luc / pBIND-SRC) in HeLa cells; assay type: cell-based; details: pG5-luc + pBIND-SRC-1, -2 or -3
Description: The compounds described herein stimulate SRC intrinsic transcriptional activity. HeLa cells transfected with a Gal4 responsive luciferase reporter (pG5-luc) and a construct encoding SRC-1, SRC-2 or SRC-3 fused with the DNA binding domain of Gal4 (pBIND-SRC-1, pBIND-SRC-2 or pBIND-SRC-3) were exposed to treatments with compounds as described herein, including MCB-613, Compound 10-1, and Compound 10-2.

[2] = Pharmacokinetics in CD-1 mice (plasma, HPLC-MS/MS)
Method: Each of the three compounds was dissolved in DMSO (20 mg/mL), mixed with 30% hydroxypropyl-β-cyclodextrin at a 1:9 ratio, and administered to the CD-1 mice intraperitoneally (ip) or orally (po) through a gavage. After compound administration, blood samples (3 mice per compound) were collected at nine time points, i.e., at 5 minutes, 0.25 hours, 0.5 hours, 1 hour, 2 hours, 4 hours, 8 hours, 12 hours, and 24 hours, through the tail vein. Plasma was isolated from these blood samples and the compound plasma concentrations were determined by HPLC-MS/MS. Pharmacokinetic parameters were calculated using the program PKSolver, an add-in program for use in analyzing pharmacokinetic and pharmacodynamics data analysis, as described in Zhang et al., Computer Methods and Programs in Biomedicine, 99: 306-314 (2010).

cardiac immune cells = assay: Flow cytometry cardiac immune phenotyping post-MI; assay type: in vivo, mice; details: 24 hours post-MI, vs control
Method: Flow Cytometry and Cardiac Immune Phenotyping. Hearts and spleens isolated from control and MCB-613 treated mice 24 hours post-MI or post-sham surgery were digested in digestion buffer: 500 μL of DNAse I (10 mg/ml), 500 μl Collagenase II (50 mg/ml) into 4 ml (enough for approx. 12 spleens @ 1x) RPMI 1640. Cells were placed on a GentleMacs dissociator and run on “IMPC_step2” twice and incubated at 25° C. for 15 minutes. The “IMPC_step2” program was repeated and the samples were incubated at 25° C. an additional 15 minutes followed by another round of the “IMPC_step2” program. Then, 400 μL of 4° C. Stopping Buffer (1x PBS, 0.1M EDTA) was added to each sample and centrifuged at ˜100 g for one second to collect liquid at the bottom of tube. Samples were filtered through mesh filter caps into 50 mL conical tubes. The tubes were then washed with 1 mL FACs buffer which was also then passed through the filter. Heart preps were more viscous and were washed with 20 mL cold filtered saline. Samples were centrifuged at 500 g for 6 minutes. Supernatant was discarded and the pellet suspended in 1 mL 4° C. FACS buffer. Following red blood cell (RBC) lysis and blocking, single cell suspensions were stained with an immune cell panel and quantified using an LSR II flow cytometer. Then, 500,000 live events were counted for spleen controls and the entire tube of heart cells was recorded and analyzed.

bone marrow granulocytes = assay: qPCR of bone marrow granulocytes post-MI; assay type: in vivo, mice; details: bone marrow granulocytes 24 hours post-MI
Method: RNA isolation and qPCR. Total RNA was isolated from cells using the Qiagen RNA isolation kit. cDNA was prepared with the VILO master mix reagent. qPCR analysis was carried out using the Taqman kit with primers for Tlr7, Lcn2 and 18s.
Granulocyte isolation. Bone marrow cells were isolated from the rear legs of mice treated with control or MCB-613 for 24 hours. Rear legs were removed and placed in ice-cold Hanks balanced salt solution (HBSS) (without Ca/Mg) plus 2% FBS. Both ends of the bone were cut and the bone marrow was flushed with ice cold HBSS with 2% FBS using a 26G needle. Clumps were broken up with an 18G needle and filtered through a 70 μm filter and centrifuged at 400 g for 10 min at 4° C. The pellet was suspended in RBC lysis buffer (BD Biosciences Pharmigen; San Diego, CA) and incubated at room temperature for two minutes. HBSS buffer (8 mL) was added and spun at 400 g for 10 mins at 4° C. Viable cells were counted by trypan blue exclusion and bone marrow granulocytes were isolated using a mouse Neutrophil Isolation Kit from Miltenyi Biotec (Bergisch Gladbach, Germany).

[3] = Toxicity profile in vitro and in vivo
[4] = test system: mice after myocardial infarction; assay: Myocardial infarction model, permanent LAD ligation (echocardiography, histology, immunostaining, PET, EM); assay type: in vivo, ICR (CD1) mice; details: repeat injections three days at weeks 8 and 16
[5] = test system: chorioallantoic membrane (CAM) of chicken eggs; assay: Chick egg CAM angiogenesis assay, topical drug; assay type: in vivo; details: 0.6 μM applied directly to chick eggs
Method: Angiogenesis assay for small molecule stimulator treatments. Five to seven day old specific-pathogen-free (SPF) certified fertilized chicken eggs (white leghorn) were used to access the chorioallantoic membrane (CAM). The total vessel area on the CAM was measured using images obtained prior to application of the drug. MCB-613 (100 μL) at a concentration of 0.6 μM was topically applied onto the surface of the CAM. The vessel area on the CAM was monitored on a daily basis following daily application of the drug. Vehicle controls were maintained throughout the experiment. Treatments were continued for four days at the end of which an image thresholding method (ImageJ) was used to quantify total vessel area on the CAM. Percent growth in vessel area was compared for control and treated eggs. n=6 eggs per condition. This experiment was repeated three times.

cardiac fibroblasts = assay: Tube formation assay; assay type: cell-based, mice; details: adult cardiac fibroblasts, 6 μM, 24 hours
Method: Tube formation assay. Cardiac fibroblasts were treated with either DMSO or 6 μM MCB-613. Twenty four hours post treatment, drug was washed off by rinsing the cells twice with PBS. The cells were then conditioned with endothelial cell growth media for 24 hours. Post conditioning, cells were plated on growth factor reduced matrigel (10 mg/ml) to allow for tube formation overnight. The next day tubes were stained with Calcein AM and imaged using the Cytation imaging system.

AUC(0-inf) ([2]; intraperitoneal): 129.6 ng·h/mL
AUC(0-t) ([2]; intraperitoneal): 122.2 ng·h/mL
Cl ([2]; intraperitoneal): 6.4 (mg)/(ng/mL)/h
Cmax ([2]; intraperitoneal): 49.2 ng/mL
Terminal phase t1/2 ([2]; intraperitoneal): 390 min
Tmax ([2]; intraperitoneal): 4.8 min
t1/2 ([2]; intraperitoneal): 51.6 min
AUC(0-inf) ([2]; oral (gavage)): 24.3 ng·h/mL
AUC(0-t) ([2]; oral (gavage)): 15.7 ng·h/mL
Cl ([2]; oral (gavage)): 34 (mg)/(ng/mL)/h
Cmax ([2]; oral (gavage)): 5.6 ng/mL
Terminal phase t1/2 ([2]; oral (gavage)): 966 min
Tmax ([2]; oral (gavage)): 15 min
t1/2 ([2]; oral (gavage)): 56.4 min
SMILES: CCC1C/C(=C\c2cccnc2)C(=O)/C(=C/c2cccnc2)C1 (stereo not drawn) [MCB-613]
intrinsic transcriptional activity of SRCs (luciferase) [1]: selectively stimulates the intrinsic transcriptional activity of SRCs
composition of cardiac immune cells (FACS) (cardiac immune cells): significant decrease in B cells, a trend for decreased monocytes and no change in the fraction of granulocytes
Tlr7 and Lcn2 mRNA expression in granulocytes (bone marrow granulocytes): Increased expression of Tlr7 and Lcn2
toxicity profile [3]: low toxicity profile in vitro and in vivo
effect of repeat injections on ejection fraction [4]: did not alter ejection fractions
angiogenesis (vessel area on CAM) [5]: stimulated angiogenesis in vivo
tube formation (cardiac fibroblasts): stimulated tube formation
